According to patent publication US5488060A, “Substituted thiadiazoles, compositions containing them and their use as antimicrobial and marine antifouling agents” (The Dow Chemical Company, priority 1994, dated 1996):
Values after ≈ are worked out from the molar mass of the structure shown. Read-outs that look alike come from different tables or passages of the source.

How the values were obtained:
Type in all cases: cell-based
[1] = system: Pseudomonas aeruginosa (PRD-10); test: Minimum inhibitory concentration (MIC) in nutrient agar, Pseudomonas aeruginosa PRD-10; settings: 48 h
Method: (§1) The antimicrobial activity of the compounds of the present invention is set forth as the minimum inhibitory concentration (MIC) for the active compounds and is determined for nine (9) bacteria, using nutrient agar, and seven (7) yeast and fungi, using malt yeast agar. This determination is conducted using a one percent solution of the test compound prepared in a mixture of acetone and water.
(§2) Nutrient agar is prepared at pH 6.8, representing a neutral medium, and at pH 8.2, representing an alkaline medium. The nutrient agars are prepared by adding 23 g of nutrient agar to one-liter of deionized water. In addition, the alkaline medium is prepared by adjusting a 0.04M solution of N-[tris-(hydroxymethyl)methyl]glycine buffered deionized water with concentrated sodium hydroxide to a pH of 8.5.
(§3) The test tubes containing the agar are cooled in a water bath until the temperature of the agar is 48° C. Then, an appropriate amount of the one percent solution of the test compound is added (except in the controls where no compound is added) to the respective test tubes so that the final concentrations are 500, […], 100, 50, 25, 10, 5, 2.5, 1.0 and zero parts per million of the test compound in the agar, thus having a known concentration of test compound dispersed therein. The contents of the test tubes are then transferred to respective petri plates. After drying for 24 hours, the petri plates containing nutrient agar are inoculated with bacteria and those containing malt yeast agar are inoculated with yeast and fungi.
(§4) The inoculation with bacteria is accomplished by using the following procedure. Twenty-four hour-cultures of each of the bacteria are prepared by incubating the respective bacteria in tubes containing nutrient broth for 24 hours at 30° C. in a shaker. Dilutions of each of the 24 hour-cultures are made so that nine separate suspensions (one for each of the nine test bacteria) are made, each containing 10^8 colony forming units (CFU) per mL of suspension of a particular bacteria. Aliquots of 0.3 mL of each of the bacterial suspensions are used to fill the individual wells of Steer's Replicator. For each microbial suspension, 0.3 mL was used to fill three wells (i.e., three wells of 0.3 mL each) so that for the nine different bacteria, 27 wells are filled. The Steer's Replicator is then used to inoculate both the neutral and alkaline pH nutrient agar petri plates.
(§5) The inoculated petri plates are incubated at 30° C. for 48 hours and then read to determine if the test compound which is incorporated into the agar prevented growth of the respective bacteria.

Aspergillus niger (An) = test: Minimum inhibitory concentration (MIC) in malt yeast agar, Aspergillus niger; settings: 72 h, pH 5.5, read-out: Minimum Inhibitory Concentration, An
Method: as §1
(§6) Malt yeast agar is prepared at pH 5.5 by adding 3 g yeast extract and 45 g malt agar per liter of deionized water. The specific agar is dispensed in 30 mL aliquots into 25×200 mm test tubes, capped and autoclaved for 15 minutes at 115° C.
as §3
(§7) The inoculation with the yeast and fungi is accomplished as follows. Cultures of yeast and fungi are incubated for seven days on malt yeast agar at 30° C. These cultures are used to prepare suspensions by the following procedure. A suspension of each organism is prepared by adding 10 mL of sterile saline and 10 microliters of octylphenoxy polyethoxy ethanol to the agar slant of yeast or fungi. The sterile saline/octylphenoxy potyethoxy ethanol solution is then agitated with a sterile swab to suspend the microorganism grown on the slant. Each resulting suspension is diluted into sterile saline (1 part suspension: 9 parts sterile saline). Aliquots of these dilutions are placed in individual wells of Steer's Replicator and petri plates inoculated as previously described. The petri plates are incubated at 30° C. and read after 48 hours for yeast and 72 hours for fungi.

[2] = system: Salmonella choleraesuis (Se); test: Minimum inhibitory concentration (MIC) in nutrient agar, Salmonella choleraesuis; settings: Salmonella enterica, 48 h
Method: as §1, §2, §3, §4, §5

Candida albicans (Ca) = test: Minimum inhibitory concentration (MIC) in malt yeast agar, Candida albicans
Method: as §1, §6, §3, §7

[3] = system: Klebsiella pneumoniae (Kp); test: Minimum inhibitory concentration (MIC) in nutrient agar, Klebsiella pneumoniae
Method: as §1, §2, §3, §4, §5

[4] = system: Staphylococcus aureus (Sa); test: Minimum inhibitory concentration (MIC) in nutrient agar, Staphylococcus aureus
Method: as §1, §2, §3, §4, §5

Escherichia coli (Ec) = test: Minimum inhibitory concentration (MIC) in nutrient agar, Escherichia coli; settings: 48 h
Method: as §1, §2, §3, §4, §5

[5] = system: Penicillium chrysogenum (Pc); test: Minimum inhibitory concentration (MIC) in malt yeast agar, Penicillium chrysogenum
Method: as §1, §6, §3, §7

Bacillus subtilis (Bs) = test: Minimum inhibitory concentration (MIC) in nutrient agar, Bacillus subtilis
Method: as §1, §2, §3, §4, §5

[6] = system: Aureobasidium pullulan (Ap); test: Minimum inhibitory concentration (MIC) in malt yeast agar, Aureobasidium pullulan
Method: as §1, §6, §3, §7

[7] = system: Enterobacter aerogenes (Ea); test: Minimum inhibitory concentration (MIC) in nutrient agar, Enterobacter aerogenes; settings: Klebsiella aerogenes, 48 h
Method: as §1, §2, §3, §4, §5

Trichoderma viride (Tv) = test: Minimum inhibitory concentration (MIC) in malt yeast agar, Trichoderma viride
Method: as §1, §6, §3, §7

[8] = system: Saccharomyces cerevisiae (Sc); test: Minimum inhibitory concentration (MIC) in malt yeast agar, Saccharomyces cerevisiae; settings: pH 5.5, malt yeast agar, 30° C., 48 hours for yeast, read-out: Minimum Inhibitory Concentration, SC
Method: as §1, §6, §3, §7

[9] = system: Pseudomonas aeruginosa (Pa); test: Minimum inhibitory concentration (MIC) in nutrient agar, Pseudomonas aeruginosa; settings: 30° C., 48 hours, read-out: Minimum Inhibitory Concentration, Pa
Method: as §1, §2, §3, §4, §5

Proteus vulgaris (Pv) = test: Minimum inhibitory concentration (MIC) in nutrient agar, Proteus vulgaris; settings: 48 h
Method: as §1, §2, §3, §4, §5

Fusarium oxysporum (Fo) = test: Minimum inhibitory concentration (MIC) in malt yeast agar, Fusarium oxysporum
Method: as §1, §6, §3, §7

[10] = pH 6.8, read-out: Minimum Inhibitory Concentration, PRD
[11] = pH 8.2, read-out: Minimum Inhibitory Concentration, PRD
[12] = pH 6.8, read-out: Minimum Inhibitory Concentration, SC
[13] = pH 8.2, read-out: Minimum Inhibitory Concentration, SC
[14] = pH 5.5, malt yeast agar, 30° C., 48 hours for yeast, read-out: Minimum Inhibitory Concentration, Ca
[15] = 48 h, pH 8.2, read-out: Minimum Inhibitory Concentration, Kp
[16] = pH 6.8, nutrient agar, 30° C., 48 hours, read-out: Minimum Inhibitory Concentration, Kp
[17] = 48 h, pH 8.2, read-out: Minimum Inhibitory Concentration, Sa
[18] = pH 6.8, nutrient agar, 30° C., 48 hours, read-out: Minimum Inhibitory Concentration, Sa
[19] = pH 6.8, read-out: Minimum Inhibitory Concentration, Ec
[20] = pH 8.2, read-out: Minimum Inhibitory Concentration, Ec
[21] = 48 h, pH 6.8, read-out: Minimum Inhibitory Concentration, Bs
[22] = 48 h, pH 8.2, read-out: Minimum Inhibitory Concentration, Bs
[23] = pH 6.8, read-out: Minimum Inhibitory Concentration, Ea
[24] = pH 8.2, read-out: Minimum Inhibitory Concentration, Ea
[25] = pH 6.8, read-out: Minimum Inhibitory Concentration, Pv
[26] = pH 8.2, read-out: Minimum Inhibitory Concentration, Pv
[27] = pH 5.5, malt yeast agar, 30° C., 72 hours for fungi, read-out: Minimum Inhibitory Concentration, Fo
[28] = 72 h, pH 5.5, read-out: Minimum Inhibitory Concentration, PC
[29] = pH 5.5, malt yeast agar, 30° C., read-out: Minimum Inhibitory Concentration, Ap

SMILES	MIC [1, 10] [µg/mL]	MIC [1, 11] [µg/mL]	MIC (Aspergillus niger (An)) [µg/mL]	MIC [2, 12] [µg/mL]	MIC [2, 13] [µg/mL]	MIC (Candida albicans (Ca); [14]) [µg/mL]	MIC [3, 15] [µg/mL]	MIC [3, 16] [µg/mL]	MIC [4, 17] [µg/mL]	MIC [4, 18] [µg/mL]	MIC (Escherichia coli (Ec); [19]) [µg/mL]	MIC (Escherichia coli (Ec); [20]) [µg/mL]	MIC (Bacillus subtilis (Bs); [22]) [µg/mL]	MIC [7, 23] [µg/mL]	MIC [7, 24] [µg/mL]	MIC [8] [µg/mL]	MIC ([9]; pH 6.8, nutrient agar) [µg/mL]	MIC ([9]; pH 8.2, nutrient agar) [µg/mL]	MIC (Proteus vulgaris (Pv); [25]) [µg/mL]	MIC (Proteus vulgaris (Pv); [26]) [µg/mL]	further results
CS(=O)(=O)c1ccc(-c2nsnc2SCSC#N)cc1 [Example XXV, 4-(4-Methylsulfonylphenyl)-3-thiocyanatomethylthio-1,2,5-thiadiazole]	500 (≈ 1460 µM)	> 500	250 (≈ 728 µM)	500 (≈ 1460 µM)	> 500	500 (≈ 1460 µM)	> 500	500 (≈ 1460 µM)	500 (≈ 1460 µM)	500 (≈ 1460 µM)	500 (≈ 1460 µM)	500 (≈ 1460 µM)	500 (≈ 1460 µM)	500 (≈ 1460 µM)	> 500	500 (≈ 1460 µM)	500 (≈ 1460 µM)	> 500	500 (≈ 1460 µM)	> 500	MIC ([5]; pH 5.5, malt yeast agar, 30° C., 72 hours for fungi, read-out: Minimum Inhibitory Concentration, PC): 9 µg/mL (≈ 26.2 µM); MIC (Bacillus subtilis (Bs); [21]): 500 µg/mL (≈ 1460 µM); MIC ([6]; pH 5.5, read-out: Minimum Inhibitory Concentration, Ap): 250 µg/mL (≈ 728 µM); MIC (Trichoderma viride (Tv); pH 5.5, malt yeast agar, 30° C., 72 hours for fungi, read-out: Minimum Inhibitory Concentration, Tv): > 500 µg/mL; MIC (Fusarium oxysporum (Fo); [27]): > 500 µg/mL
COc1ccc(-c2nsnc2SCSC#N)cc1 [Example XXIII, 4-(4-Methoxyphenyl)-3-thiocyanatomethylthio-1,2,5-thiadiazole]	> 500	> 500	25 (≈ 84.6 µM)	> 500	> 500		> 500	> 500	> 500	> 500	> 500	> 500	250 (≈ 846 µM)	> 500	500 (≈ 1690 µM)	9 (≈ 30.5 µM)	> 500	> 500	> 500	> 500	MIC (Candida albicans (Ca); 48 h, pH 5.5, read-out: Minimum Inhibitory Concentration, Ca): 250 µg/mL (≈ 846 µM); MIC [5, 28]: 50 µg/mL (≈ 169 µM); MIC (Bacillus subtilis (Bs); [21]): 500 µg/mL (≈ 1690 µM); MIC [6, 29]: 9 µg/mL (≈ 30.5 µM); MIC (Trichoderma viride (Tv); 72 h, pH 5.5, read-out: Minimum Inhibitory Concentration, Tv): 250 µg/mL (≈ 846 µM); MIC (Fusarium oxysporum (Fo); 72 h, pH 5.5, read-out: Minimum Inhibitory Concentration, Fo): 100 µg/mL (≈ 339 µM)
COC(=O)c1ccc(-c2nsnc2SC#N)cc1 [Example XII]	500 (≈ 1800 µM)	500 (≈ 1800 µM)	25 (≈ 90.1 µM)	500 (≈ 1800 µM)	500 (≈ 1800 µM)	10 (≈ 36.1 µM)	500 (≈ 1800 µM)	500 (≈ 1800 µM)	500 (≈ 1800 µM)	500 (≈ 1800 µM)	500 (≈ 1800 µM)	500 (≈ 1800 µM)	500 (≈ 1800 µM)	500 (≈ 1800 µM)	500 (≈ 1800 µM)	10 (≈ 36.1 µM)	500 (≈ 1800 µM)	500 (≈ 1800 µM)	500 (≈ 1800 µM)	500 (≈ 1800 µM)	MIC [5, 28]: 100 µg/mL (≈ 361 µM); MIC (Bacillus subtilis (Bs); pH 6.8, nutrient agar, 30° C., 48 hours, read-out: Minimum Inhibitory Concentration, Bs): 25 µg/mL (≈ 90.1 µM); MIC [6, 29]: 10 µg/mL (≈ 36.1 µM); MIC (Fusarium oxysporum (Fo); [27]): 10 µg/mL (≈ 36.1 µM)
